In patent US5973006A, “Fluoro-substituted benzoylpropionic acid derivatives” (Pharmacia & Upjohn S.p.A., priority 1995, dated 1999) one finds solubility and IC50 data, which are given here for four molecules.

Each structure is given as a SMILES string. pIC50: −log10 of the molar value. Structures can show the parent of a compound that is named as a salt.

Data set [1] can be described thus: Solubility in water at the indicated pH. In kind it is physicochemical. An excerpt:
The following Table 2 reports the solubility in water at the indicated pH of a representative compound of the invention (R,S)-2-amino-4-(3',4'-difluorophenyl)-4-oxo-2-butanoic acid hydrochloride (PNU 156830) in comparison with the known reference compound of WO 95/03271: (R,S)-2-amino-4-(3',4'-dichlorophenyl)-4-oxo-butanoic acid hydrochloride (internal code: PNU 156561).

Data set [2] concerns the target T1, kynurenine-3-hydroxylase (Rattus norvegicus, UniProt O88867). In words: Kynurenine-3-hydroxylase assay in the rat brain. In kind it is biochemical. The arrangement: from tissue. The note with it: rat brain homogenate, 50 μM L-kynurenine, 60 min; read-out: Enzyme Inhibition (Brain) IC50. The protocol: Kynurenine-3-hydroxylase Assay in the Rat Brain
Brain was homogenized in ice-cold 0.32 M sucrose and centrifuged at 12000×g for 30 min at 4° C. The pellet was washed three times with 0.32 M sucrose by centrifugation and suspended in 0.14 M KCl in 20 mM K-phosphate buffer at pH 7 (1 g tissue in 2 ml buffer). The reaction mixture contained: 75 μl of suspended homogenate; 100 μl of substrate solution containing 50 mM K-phosphate buffer pH 7.5, 2 MM MgCl2, 0.4 mM NADPH, and 50 μM L-kynurenine (final concentration),and 25 μl of different concentrations of inhibitor solutions. The reaction was stopped by addition of 200 μl of 1 M HClO4 after 60 min incubation. L-3-hydroxykynurenine formed was quantified by HPLC with coulometric detection at a working voltage of +0.2 V. The column was a 10 cm C18 reversed phase (3 μm. The mobile phase consisted of 950 ml distilled water, 20 ml acetonitrile, 9 ml triethylamine, 5.9 ml phosphoric acid, 100 mg sodium EDTA and 1.5 g heptanesulfonic acid. The flow rate was 1 ml/min.

The target in data set [3] is T1, kynurenine-3-hydroxylase. The data set can be described thus: Kynurenine-3-hydroxylase assay in the rat liver (mitochondrial extract). The format is biochemical. The arrangement: Rat liver mitochondrial extract was used as enzymatic preparation for this assay; from tissue; host or cells: rat liver mitochondrial extract. The settings on record: 0.025 mM L-kynurenine, 37° C., 30 min, read-out: Enzyme Inhibition (Liver) IC50. The protocol:
Kynurenine-3-hydroxylase Assay in the Rat Liver
The assay for kynurenine 3-hydroxylase was based on the enzymatic synthesis of tritiated water during the hydroxylation reaction. Radiolabeled water was quantified following selective adsorption of the isotopic substrate and its metabolite with activated charcoal.
Rat liver mitochondrial extract was used as enzymatic preparation for this assay.
The assay for kynurenine 3-hydroxylase activity was carried out at 37° C. for a time of 30 min. The reaction mixture of a total volume of […] was constituted of […] of suspended extract, 100 mM Tris/Cl buffer pH 8.1, 10 mM EDTA, 100 mM KCl, 0.8 mM NADPH, 0.025 mM L-kynurenine, […] L-(3,5-^3 H)Kynurenine (10 Ci/mmol) and […] of different concentration of inhibitor solutions. After the incubation the reaction was terminated by the addition of 1 mL of 7.5% (w/v) activated charcoal, vortexed and centrifugated for 7 min.
A […] aliquot of supernatant was counted by scintillation spectroscopy in 5 ml of liquid scintillation.

T1 sequence (O88867 whole entry): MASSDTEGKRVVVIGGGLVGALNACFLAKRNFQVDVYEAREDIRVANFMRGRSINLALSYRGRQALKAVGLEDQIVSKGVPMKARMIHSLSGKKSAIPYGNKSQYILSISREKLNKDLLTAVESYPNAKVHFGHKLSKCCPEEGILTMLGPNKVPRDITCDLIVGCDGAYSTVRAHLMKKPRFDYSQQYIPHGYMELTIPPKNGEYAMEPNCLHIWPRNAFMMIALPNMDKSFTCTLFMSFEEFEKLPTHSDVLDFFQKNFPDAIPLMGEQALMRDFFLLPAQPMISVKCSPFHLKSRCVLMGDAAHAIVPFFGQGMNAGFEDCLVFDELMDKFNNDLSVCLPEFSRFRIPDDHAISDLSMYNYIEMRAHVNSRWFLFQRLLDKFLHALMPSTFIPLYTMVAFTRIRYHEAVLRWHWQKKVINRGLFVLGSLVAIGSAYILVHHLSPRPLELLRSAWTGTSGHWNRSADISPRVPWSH

As to `NC(CC(=O)c1ccc(Cl)c(Cl)c1)C(=O)O` (racemic) [PNU 156561, (R,S)-2-amino-4-(3',4'-dichlorophenyl)-4-oxo-butanoic acid hydrochloride, reference compound], the solubility (usually how much of the substance goes into solution per volume) in data set [1] (pH = 7.4) came to 0.2 mg/mL; in data set [1] (pH = 8) it was 15 mg/mL.
For the molecule `NC(CC(=O)c1ccc(F)c(F)c1)C(=O)O` (racemic) [PNU 156830, (R,S)-2-amino-4-(3',4'-difluorophenyl)-4-oxo-2-butanoic acid hydrochloride], the solubility turned out to be 38 mg/mL in data set [1] (pH = 3), 18 mg/mL in data set [1] (pH = 7.4) and 36 mg/mL in data set [1] (pH = 8). The pIC50 (commonly the negative decadic logarithm of the IC50, by convention in mol/L) in data set [2] was 6.92; in data set [3], 6.38.
In the case of `N[C@H](CC(=O)c1ccc(F)c(F)c1)C(=O)O` [PNU 158392, (R)-2-amino-4-(3',4'-difluorophenyl)-4-oxo-2-butanoic acid hydrochloride], in data set [3], the pIC50 is 4.96.
With `N[C@@H](CC(=O)c1ccc(F)c(F)c1)C(=O)O` [PNU 158393, (S)-2-amino-4-(3',4'-difluorophenyl)-4-oxo-2-butanoic acid hydrochloride], the pIC50 in data set [3] was 6.66.
